Patent publication US20080139455A1, “COMPOUNDS AND METHODS OF TREATING METABOLIC SYNDROME AND INFLAMMATION” (Forbes Medi-Tech (Research), Inc., priority 2006, published 2008)

Legend:
Rat pancreatic islets = assay: Protection of islets by an SPT inhibitor (propidium iodide staining, flow cytometry); assay type: cell-based; details: 3 days
Procedure: Islet protection by an exemplary compound is evaluated in an assay according to Eitel, K, et al. Biochem. Biophys. Res. Commun. 299: 853-6 (2002), and results obtained in this assay are reported below in Table 4. Rat pancreatic islets are cultured with control medium (RPMI 1640 supplemented with 10% fetal bovine serum, antibiotics and made 8% in glucose) or in medium supplemented with I millimolar sodium palmitate (Fatty Acid Medium) during a period of 3 days. The culture medium is changed after 2 days to an identical composition culture medium with fresh inhibitor in the appropriate wells. Cells are stained with propidium iodide (PI), washed and propidium staining of cells (as a measure of cellular DNA content) is assessed by flow cytometry. The percentage of cells having less than the normal amount of PI staining is considered to be apoptotic cells (Eitel, K, et al. (2002)).

SPT [1] = target: T1, SPT (Homo sapiens, UniProt O15269+O15270); assay: Serine palmitoyltransferase activity, Assay C ([3H]serine incorporation into lipids, cell homogenates); assay type: biochemical; details: 37° C. for 20 min, at the doses indicated
T1 sequence (O15269 1-473): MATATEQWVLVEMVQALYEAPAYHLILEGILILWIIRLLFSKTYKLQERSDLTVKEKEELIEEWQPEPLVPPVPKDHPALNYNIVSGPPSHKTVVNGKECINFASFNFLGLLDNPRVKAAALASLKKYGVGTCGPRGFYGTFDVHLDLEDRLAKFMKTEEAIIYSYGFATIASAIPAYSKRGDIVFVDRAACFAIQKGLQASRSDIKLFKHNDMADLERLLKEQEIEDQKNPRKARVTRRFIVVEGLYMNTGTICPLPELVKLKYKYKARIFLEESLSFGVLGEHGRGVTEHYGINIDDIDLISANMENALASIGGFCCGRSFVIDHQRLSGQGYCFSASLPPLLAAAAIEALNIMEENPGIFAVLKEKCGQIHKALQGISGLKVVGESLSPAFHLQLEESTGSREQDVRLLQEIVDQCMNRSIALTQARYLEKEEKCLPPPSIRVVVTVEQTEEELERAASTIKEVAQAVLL
T1 sequence (O15270 1-562): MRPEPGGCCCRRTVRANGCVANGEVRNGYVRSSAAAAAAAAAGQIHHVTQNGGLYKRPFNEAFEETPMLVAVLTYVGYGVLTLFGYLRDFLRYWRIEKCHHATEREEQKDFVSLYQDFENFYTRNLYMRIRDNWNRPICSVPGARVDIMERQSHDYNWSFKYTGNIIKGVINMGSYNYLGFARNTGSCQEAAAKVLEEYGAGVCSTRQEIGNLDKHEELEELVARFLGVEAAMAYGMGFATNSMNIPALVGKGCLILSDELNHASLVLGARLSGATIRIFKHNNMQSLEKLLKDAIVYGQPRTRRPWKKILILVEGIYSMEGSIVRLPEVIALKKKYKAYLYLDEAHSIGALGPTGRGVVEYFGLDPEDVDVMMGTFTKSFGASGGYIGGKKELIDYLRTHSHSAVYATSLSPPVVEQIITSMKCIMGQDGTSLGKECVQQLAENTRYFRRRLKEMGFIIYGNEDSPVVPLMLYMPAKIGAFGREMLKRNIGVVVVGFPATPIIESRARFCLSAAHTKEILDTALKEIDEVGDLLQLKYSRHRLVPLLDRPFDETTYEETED
Procedure: An alternative assay for evaluating inhibition of SPT, the enzyme present in commonly cultured cells, is performed with CHO cells or a human cell line. Cells are washed three times with ice-cold phosphate-buffered saline (PBS). A total of 0.5 mL of lysis buffer [50 mM Hepes (pH 8.0) containing 5 mM ethylenediaminetetraacetic acid (EDTA) and 5 mM dithiothreitol (DTT)] is added to each dish. The cells are scraped using a rubber policeman, and are then transferred to a test tube on ice. The cell suspension is sonicated three times for 5 s at 1-2 min intervals on ice. Protein concentrations in cell homogenates are measured using a Bradford protein assay kit (Bio-Rad). […] The radioactivity is measured with a LS6000TA liquid scintillation counter (Beckman). Nonspecific conversion of [^3H] serine to chloroform-soluble species is determined by performing the assay in the absence of palmitoyl CoA. […]
An alternative assay using a non-chlorinated solvent modification of the Blye and Dyer lipid extraction method reported in Smedes (Smedes, F. (1999) Analyst 124, 1711-18) is employed to evaluate exemplary compounds. […] An accurately measured portion of the organic layer (4.0 ml) is added to a scintillation vial with 1 ml of water. […] The amount of [^3H] serine radioactivity incorporated into lipids is quantified in a scintillation counter. […]

SPT [2] = target: T1, SPT; details: literature; cited from earlier work
mice = details: literature, cited from earlier work; for protective effect / prevention of progression of emphysema: VEGF receptor blockade model
ApoE knockout mice = details: literature; cited from earlier work
[3] = test system: diabetic Zucker fatty rat model; details: literature; cited from earlier work

With `CCCCCCCOc1cccc(CCC(O)C(O)C(N)C(=O)O)c1` (stereo not shown) [Compound 12] the “protection of islet cells from fatty acid treatment (apoptotic cells by PI staining)” value (Rat pancreatic islets; medium with sodium palmitate (Fatty Acid Medium)) was “fully protect cells from the fatty acid treatment”, the “benefit in comparison to treatment with the control medium (apoptotic cells by PI staining)” value (Rat pancreatic islets; versus control medium) was “imparts a benefit in comparison to treatment with the control medium” and the “inhibition of SPT ([3H] serine radioactivity incorporated into lipids)” value (SPT [1]) was “moderate activity”.

For `CCCCCCCCc1ccc(CCC(N)(CO)CO)cc1` [FTY720], the “activity against / inhibition of SPT” value (SPT [2]) is given as “do not inhibit SPT”.

In the case of `CCCCCCC(=O)CCCCCC/C=C/C[C@@H](O)[C@H](O)[C@@](N)(CO)C(=O)O` [ISP-1], the “protective effect / prevention of progression of emphysema” value (mice) is given as “very strong protective effect”, the “IC50 for inhibition of SPT” value (SPT [2]) is given as “sub-nanomolar” and the atherosclerotic plaque (ApoE knockout mice) is given as “dramatic reduction in atherosclerotic plaque”. For the same compound, the “inhibition of SPT ([3H] serine radioactivity incorporated into lipids)” value (SPT [1]) was “potent but non-selective inhibition”.

In the case of `CCCCCCCCc1ccc(CCC(N)(CO)C(=O)O)cc1` (stereo not shown) [compound 2], the “activity against / inhibition of SPT” value (SPT [2]) is listed as “did not exhibit activity against SPT”.

For `N[C@@H]1CON=C1O` [cycloserine], the “activity against / inhibition of SPT” value (SPT [2]) is given as “weak inhibition” and the “beta cell protective effect” value [3] is given as “≈ 50%”.

For `CCCC[C@@H](C)[C@@H](OC(=O)C[C@@H](CC(=O)O)C(=O)O)[C@H](C[C@@H](C)C[C@H](O)CCCC[C@@H](O)C[C@H](O)[C@H](C)N)OC(=O)C[C@@H](CC(=O)O)C(=O)O` [fumonisin B1], the “protective effect / prevention of progression of emphysema” value (mice) is given as “less effective” and the toxicity (mice; emphysema model, higher doses) is given as “some toxicity at higher doses”.
